Assays:
JAK1 = JAK1 (Homo sapiens (Human), UniProt P23458); test: Biochemical JAK1 kinase assay (LanthaScreen)
Description: (§1) Assay 1: Biochemical JAK and Tyk2 Kinase Assays
(§2) A panel of four LanthaScreen JAK biochemical assays (JAK1, 2, 3 and Tyk2) were carried in a common kinase reaction buffer (50 mM HEPES, pH 7.5, 0.01% Brij-35, 10 mM MgCl2, and 1 mM EGTA). Recombinant GST-tagged JAK enzymes and a GFP-tagged STAT1 peptide substrate were obtained from Life Technologies.
(§3) Serially or discretely diluted compounds were pre-incubated with each of the four JAK enzymes and the substrate in white 384-well microplates (Corning) at ambient temperature for 1 h. ATP was subsequently added to initiate the kinase reactions in 10 μL total volume, with 1% DMSO. […] Kinase reactions were allowed to proceed for 1 hour at ambient temperature before a 10 μL preparation of EDTA (10 mM final concentration) and Tb-anti-pSTAT1 (pTyr701) antibody (Life Technologies, 2 nM final concentration) in TR-FRET dilution buffer (Life Technologies) was added. The plates were allowed to incubate at ambient temperature for 1 h before being read on the EnVision reader (Perkin Elmer). Emission ratio signals (520 nm/495 nm) were recorded and utilized to calculate the percent inhibition values based on DMSO and background controls.
(§4) For dose-response analysis, percent inhibition data were plotted vs. compound concentrations, and IC50 values were determined from a 4-parameter robust fit model with the Prism software (GraphPad Software). Results were expressed as pIC50 (negative logarithm of IC50) and subsequently converted to pKi (negative logarithm of dissociation constant, Ki) using the Cheng-Prusoff equation.

JAK2 = JAK2 (Homo sapiens (Human), UniProt O60674); test: Biochemical JAK2 kinase assay (LanthaScreen)
Sequence of JAK2 (O60674 whole entry): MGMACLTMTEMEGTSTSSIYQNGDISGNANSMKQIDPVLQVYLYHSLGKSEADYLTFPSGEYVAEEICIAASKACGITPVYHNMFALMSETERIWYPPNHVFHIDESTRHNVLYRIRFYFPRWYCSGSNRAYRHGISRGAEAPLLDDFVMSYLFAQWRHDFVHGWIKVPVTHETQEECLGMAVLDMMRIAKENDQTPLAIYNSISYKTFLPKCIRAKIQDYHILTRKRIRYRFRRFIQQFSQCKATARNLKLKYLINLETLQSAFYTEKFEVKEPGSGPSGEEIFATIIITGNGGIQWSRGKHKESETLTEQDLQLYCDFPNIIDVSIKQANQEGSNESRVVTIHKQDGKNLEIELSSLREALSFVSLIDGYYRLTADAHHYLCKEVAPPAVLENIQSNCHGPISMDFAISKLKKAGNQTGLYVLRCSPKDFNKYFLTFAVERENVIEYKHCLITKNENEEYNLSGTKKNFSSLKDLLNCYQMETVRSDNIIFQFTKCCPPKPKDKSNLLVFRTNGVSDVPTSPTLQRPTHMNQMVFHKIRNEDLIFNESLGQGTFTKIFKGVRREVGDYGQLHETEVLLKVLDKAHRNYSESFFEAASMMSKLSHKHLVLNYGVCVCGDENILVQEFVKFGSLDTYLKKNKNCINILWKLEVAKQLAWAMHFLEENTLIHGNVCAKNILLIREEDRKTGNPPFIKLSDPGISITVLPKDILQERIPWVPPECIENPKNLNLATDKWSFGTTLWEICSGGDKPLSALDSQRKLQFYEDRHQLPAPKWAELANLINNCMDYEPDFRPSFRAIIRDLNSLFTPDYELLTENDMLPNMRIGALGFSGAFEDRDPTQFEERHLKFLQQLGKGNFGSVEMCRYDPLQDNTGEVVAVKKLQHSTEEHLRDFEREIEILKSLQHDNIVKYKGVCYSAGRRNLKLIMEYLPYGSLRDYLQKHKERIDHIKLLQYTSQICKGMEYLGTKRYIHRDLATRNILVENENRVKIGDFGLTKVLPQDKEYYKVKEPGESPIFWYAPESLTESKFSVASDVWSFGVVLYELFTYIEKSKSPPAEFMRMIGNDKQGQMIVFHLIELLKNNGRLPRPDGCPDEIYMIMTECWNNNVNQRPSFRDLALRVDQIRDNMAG
Description: as §1, §2, §3, §4

JAK3 = JAK3 (Homo sapiens (Human), UniProt P52333); test: Biochemical JAK3 kinase assay (LanthaScreen)
Sequence of JAK3 (P52333 whole entry): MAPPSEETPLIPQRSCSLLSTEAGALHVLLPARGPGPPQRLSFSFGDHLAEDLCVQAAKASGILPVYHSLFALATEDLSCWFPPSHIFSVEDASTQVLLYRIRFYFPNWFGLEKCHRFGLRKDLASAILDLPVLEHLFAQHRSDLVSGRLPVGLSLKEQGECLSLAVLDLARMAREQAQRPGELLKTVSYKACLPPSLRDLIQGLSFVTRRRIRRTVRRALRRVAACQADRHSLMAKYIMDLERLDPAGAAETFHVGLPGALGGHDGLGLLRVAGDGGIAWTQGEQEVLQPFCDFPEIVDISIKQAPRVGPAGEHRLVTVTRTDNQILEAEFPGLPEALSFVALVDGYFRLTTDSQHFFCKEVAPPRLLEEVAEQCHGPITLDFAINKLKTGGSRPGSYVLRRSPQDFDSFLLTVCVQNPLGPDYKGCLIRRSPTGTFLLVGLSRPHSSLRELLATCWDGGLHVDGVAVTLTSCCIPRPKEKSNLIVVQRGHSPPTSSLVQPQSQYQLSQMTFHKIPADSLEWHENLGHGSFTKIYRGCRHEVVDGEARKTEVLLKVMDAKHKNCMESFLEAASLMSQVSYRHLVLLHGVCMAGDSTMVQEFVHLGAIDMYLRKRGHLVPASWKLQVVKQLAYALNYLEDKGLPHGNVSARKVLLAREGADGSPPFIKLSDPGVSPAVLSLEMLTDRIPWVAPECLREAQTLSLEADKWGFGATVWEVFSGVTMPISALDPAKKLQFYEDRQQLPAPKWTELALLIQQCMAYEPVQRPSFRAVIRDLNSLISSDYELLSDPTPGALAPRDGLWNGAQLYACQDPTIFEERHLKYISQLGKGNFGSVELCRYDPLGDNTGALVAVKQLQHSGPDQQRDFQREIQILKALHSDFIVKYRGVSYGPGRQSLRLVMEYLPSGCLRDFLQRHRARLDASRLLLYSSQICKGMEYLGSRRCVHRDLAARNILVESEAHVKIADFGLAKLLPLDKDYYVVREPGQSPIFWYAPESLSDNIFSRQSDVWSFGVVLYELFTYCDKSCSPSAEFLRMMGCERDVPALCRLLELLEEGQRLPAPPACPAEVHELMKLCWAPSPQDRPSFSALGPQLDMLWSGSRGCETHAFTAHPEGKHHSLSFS
Description: as §1, §2, §3, §4

Tyk2 = Tyk2 (Homo sapiens (Human), UniProt P29597); test: Biochemical Tyk2 kinase assay (LanthaScreen)
Sequence of Tyk2 (P29597 whole entry): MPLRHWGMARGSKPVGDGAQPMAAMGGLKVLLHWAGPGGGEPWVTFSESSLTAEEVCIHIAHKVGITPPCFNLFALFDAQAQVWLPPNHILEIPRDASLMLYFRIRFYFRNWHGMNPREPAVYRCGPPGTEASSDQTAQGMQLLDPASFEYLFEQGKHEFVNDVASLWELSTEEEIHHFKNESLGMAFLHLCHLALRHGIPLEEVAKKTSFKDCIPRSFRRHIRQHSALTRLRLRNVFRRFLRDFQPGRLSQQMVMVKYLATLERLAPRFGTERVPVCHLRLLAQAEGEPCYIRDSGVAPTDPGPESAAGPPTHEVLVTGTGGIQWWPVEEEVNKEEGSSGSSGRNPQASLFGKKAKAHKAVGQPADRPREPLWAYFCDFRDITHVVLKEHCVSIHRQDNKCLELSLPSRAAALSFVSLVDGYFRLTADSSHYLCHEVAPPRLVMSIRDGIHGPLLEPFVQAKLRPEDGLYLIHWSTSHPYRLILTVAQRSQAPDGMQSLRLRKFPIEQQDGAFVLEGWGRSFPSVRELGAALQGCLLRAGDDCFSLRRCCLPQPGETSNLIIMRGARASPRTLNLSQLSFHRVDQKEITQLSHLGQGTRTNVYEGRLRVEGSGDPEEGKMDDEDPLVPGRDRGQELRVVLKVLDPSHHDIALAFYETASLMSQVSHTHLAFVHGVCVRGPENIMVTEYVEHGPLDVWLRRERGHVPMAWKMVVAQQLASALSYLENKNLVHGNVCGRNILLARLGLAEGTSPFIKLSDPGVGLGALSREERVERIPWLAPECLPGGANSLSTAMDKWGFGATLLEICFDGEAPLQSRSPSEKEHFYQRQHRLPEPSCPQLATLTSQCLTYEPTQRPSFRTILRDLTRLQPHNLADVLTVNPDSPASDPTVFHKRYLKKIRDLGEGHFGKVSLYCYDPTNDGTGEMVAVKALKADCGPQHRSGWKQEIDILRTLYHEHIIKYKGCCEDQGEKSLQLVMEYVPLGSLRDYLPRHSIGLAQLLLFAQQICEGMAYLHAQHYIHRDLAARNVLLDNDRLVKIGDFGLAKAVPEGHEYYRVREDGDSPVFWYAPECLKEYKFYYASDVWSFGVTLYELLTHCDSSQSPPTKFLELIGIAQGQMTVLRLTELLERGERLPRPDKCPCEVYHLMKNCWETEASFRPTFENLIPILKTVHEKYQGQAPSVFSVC
Description: as §1, §2, §3, §4

[1] = test system: IL-2 stimulated STAT5 phosphorylation in Tall-1 human T cell line (JAK3); test: Cellular JAK3 potency assay: inhibition of IL-2 stimulated pSTAT5 in Tall-1 T cells; format: cell-based
Description: Assay 2: Cellular JAK3 Potency Assay: Inhibition of IL-2 Stimulated pSTAT5 in Tall-1 T Cells
The potency of test compounds for inhibition of interleukin-2 (IL-2) stimulated STAT5 phosphorylation was measured in the Tall-1 human T cell line (DSMZ) using AlphaLisa. Because IL-2 signals through JAK3, this assay provides a measure of JAK3 cellular potency.
Phosphorylated STAT5 was measured via the AlphaLISA SureFire Ultra pSTAT5 (Tyr694/699) kit (PerkinElmer).
Human T cells from the Tall-1 cell line were cultured in a 37° C., 5% CO2 humidified incubator in RPMI (Life Technologies) supplemented with 15% Heat Inactivated Fetal Bovine Serum (FBS, Life Technologies), 2 mM Glutamax (Life Technologies), 25 mM HEPES (Life Technologies) and 1× Pen/Strep (Life Technologies). Compounds were serially diluted in DMSO and dispensed acoustically to empty wells. Assay media (phenol red-free DMEM (Life Technologies) supplemented with 10% FBS (ATCC)) was dispensed (4 μL/well) and plates shaken at 900 rpm for 10 inns. Cells were seeded at 45,000 cells/well in assay media (4 μL/well), and incubated at 37° C., 5% CO2 for 1 hour, followed by the addition of IL-2 (R&D Systems; final concentration 300 ng/ml) in pre-warmed assay media (4 μL) for 30 minutes. After cytokine stimulation, cells were lysed with 6 ul of 3× AlphaLisa Lysis Buffer (PerkinElmer) containing 1× PhosStop and Complete tablets (Roche). The lysate was shaken at 900 rpm for 10 minutes at room temperature (RT). Phosphorylated STAT5 was measured via the pSTAT5 AlphaLisa kit (PerkinElmer). Freshly prepared acceptor bead mixture was dispensed onto lysate (5 μL) under green filtered <100 lux light. Plates were shaken at 900 rpm for 2 mins, briefly spun down, and incubated for 2 hrs at RT in the dark. Donor beads were dispensed (5 μL) under green filtered <100 lux light. Plates were shaken at 900 rpm for 2 minutes, briefly spun down, and incubated overnight at RT in the dark. Luminescence was measured with excitation at 689 nm and emission at 570 nm using an EnVision plate reader (PerkinElmer) under green filtered <100 lux light.
To determine the inhibitory potency of test compounds in response to IL-2, the average emission intensity of beads bound to pSTAT5 was measured in a human T cell line. IC50 values were determined from analysis of the inhibition curves of signal intensity versus compound concentration. Data are expressed as pIC50 (negative decadic logarithm IC50) values (mean standard deviation).

[2] = selectivity JAK3 over JAK1, difference of pKi
[3] = IL-2 stimulated pSTAT5, Tall-1 T cells
[4] = selectivity, difference of pKi values
[5] = IL-2 stimulated pSTAT5 in Tall-1 T cells

Sequence of JAK1 (P23458 whole entry): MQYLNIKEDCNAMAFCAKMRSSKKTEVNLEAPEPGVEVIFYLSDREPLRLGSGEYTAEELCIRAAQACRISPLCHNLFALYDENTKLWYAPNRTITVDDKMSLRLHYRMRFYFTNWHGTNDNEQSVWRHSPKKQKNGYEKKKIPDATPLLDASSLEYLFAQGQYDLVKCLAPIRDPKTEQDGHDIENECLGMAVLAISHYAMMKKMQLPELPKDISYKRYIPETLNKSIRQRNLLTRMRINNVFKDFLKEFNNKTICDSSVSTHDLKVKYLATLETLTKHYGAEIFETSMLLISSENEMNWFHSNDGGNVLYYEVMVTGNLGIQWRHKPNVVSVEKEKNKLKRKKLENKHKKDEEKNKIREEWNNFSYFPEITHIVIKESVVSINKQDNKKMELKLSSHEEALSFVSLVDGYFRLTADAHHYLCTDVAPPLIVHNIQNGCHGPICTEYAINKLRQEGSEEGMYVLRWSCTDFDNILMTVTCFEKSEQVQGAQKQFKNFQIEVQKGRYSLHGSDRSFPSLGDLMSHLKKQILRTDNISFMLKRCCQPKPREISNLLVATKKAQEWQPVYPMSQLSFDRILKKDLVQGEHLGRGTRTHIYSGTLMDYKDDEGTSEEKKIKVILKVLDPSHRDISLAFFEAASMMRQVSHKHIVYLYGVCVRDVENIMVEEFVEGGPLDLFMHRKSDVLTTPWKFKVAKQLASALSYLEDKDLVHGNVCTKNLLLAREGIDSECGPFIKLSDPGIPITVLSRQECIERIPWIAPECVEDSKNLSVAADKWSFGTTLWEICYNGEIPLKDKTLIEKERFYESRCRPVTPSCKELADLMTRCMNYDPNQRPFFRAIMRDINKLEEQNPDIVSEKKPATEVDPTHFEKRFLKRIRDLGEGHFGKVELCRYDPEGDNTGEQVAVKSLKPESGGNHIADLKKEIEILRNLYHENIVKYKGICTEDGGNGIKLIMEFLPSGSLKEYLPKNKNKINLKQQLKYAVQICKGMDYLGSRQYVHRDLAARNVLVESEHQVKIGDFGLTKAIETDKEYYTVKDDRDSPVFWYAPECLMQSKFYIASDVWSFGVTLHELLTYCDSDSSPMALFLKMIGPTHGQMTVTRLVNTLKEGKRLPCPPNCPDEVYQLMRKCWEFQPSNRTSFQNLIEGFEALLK

Row | SMILES | JAK 1 (pKi) (JAK1) | JAK 2 (pKi) (JAK2) | JAK 3 (pKi) (JAK3) | JAK3 (pKi)-JAK1 (pKi) (JAK3; [2]) | Tyk 2 (pKi) (Tyk2) | Tall-1 (pIC50) [1, 3] | JAK3 (pKi)-JAK1 (pKi) (JAK3; [4]) | Tall-1 (pIC50) [1, 5]
1 | C=CC(=O)N1CC(CCn2c(=O)ccc3cnc(Nc4cccc(CN5CCN(S(=O)(=O)CCOC)CC5)c4)nc32)C1 [Example 132] | E (E represents a pKi value of 7 or below (Ki of 100 nM or above)) | E (E represents a pKi value of 7 or below (Ki of 100 nM or above)) | A (A represents a pKi value≥10 (Ki≤0.1 nM)) | A (A represents a value of 3 or above) | E (E represents a pKi value of 7 or below (Ki of 100 nM or above)) | B (B represents a pC50 value between 6.7 (included) and 7.5 (IC50 between 200 nM and 32 nM)) |  | 
2 | C=CC(=O)N1CC(CCn2c(=O)ccc3cnc(Nc4ccc(N5CCN(CCC6CCCCC6)CC5)cc4)nc32)C1 [Example 116] | E (E represents a pKi value of 7 or below (Ki of 100 nM or above)) | E (E represents a pKi value of 7 or below (Ki of 100 nM or above)) | B (B represents pKi value between 9 and 10 (Ki between 1 nM and 0.1 nM)) | B (B represents a value of 2.5 to 3) | E (E represents a pKi value of 7 or below (Ki of 100 nM or above)) | B (B represents a pC50 value between 6.7 (included) and 7.5 (IC50 between 200 nM and 32 nM)) |  | 
3 | C=CC(=O)N1CCN(CCn2c(=O)ccc3cnc(Nc4ccc(N5CCN(S(=O)(=O)C6COC6)CC5)cc4)nc32)CC1 [Example 148] | E (E represents a pKi value of 7 or below (Ki of 100 nM or above)) | E (E represents a pKi value of 7 or below (Ki of 100 nM or above)) | B (B represents pKi value between 9 and 10 (Ki between 1 nM and 0.1 nM)) | A (A represents a value of 3 or above) | E (E represents a pKi value of 7 or below (Ki of 100 nM or above)) | C (C represents a pIC50 value between 6 and 6.7 (IC50 between 1 μM and 200 nM)) |  | 
4 | C=CC(=O)N1CCN(CCn2c(=O)ccc3cnc(Nc4cnn(CCN5CCOCC5)c4)nc32)[C@@H](CC)C1 [Example 244] | E (E represents a pKi value of 7 or below (Ki of 100 nM or above)) | E (E represents a pKi value of 7 or below (Ki of 100 nM or above)) | B (B represents pKi value between 9 and 10 (Ki between 1 nM and 0.1 nM)) |  | E (E represents a pKi value of 7 or below (Ki of 100 nM or above)) |  | A (A represents a value of 3 or above) | B (B represents a pC50 value between 6.7 (included) and 7.5 (IC50 between 200 nM and 32 nM))
5 | C=CC(=O)N1CC(CCn2c(=O)ccc3cnc(Nc4cccc(C(=O)N5CCCCC5)c4)nc32)C1 [Example 64] | E (E represents a pKi value of 7 or below (Ki of 100 nM or above)) | E (E represents a pKi value of 7 or below (Ki of 100 nM or above)) | B (B represents pKi value between 9 and 10 (Ki between 1 nM and 0.1 nM)) | A (A represents a value of 3 or above) | E (E represents a pKi value of 7 or below (Ki of 100 nM or above)) | C (C represents a pIC50 value between 6 and 6.7 (IC50 between 1 μM and 200 nM)) |  | 
6 | C=CC(=O)N1CC(CCn2c(=O)ccc3cnc(Nc4ccc(CN5CCN(C)CC5)cc4)nc32)C1 [Example 46] | E (E represents a pKi value of 7 or below (Ki of 100 nM or above)) | E (E represents a pKi value of 7 or below (Ki of 100 nM or above)) | B (B represents pKi value between 9 and 10 (Ki between 1 nM and 0.1 nM)) | A (A represents a value of 3 or above) | E (E represents a pKi value of 7 or below (Ki of 100 nM or above)) | B (B represents a pC50 value between 6.7 (included) and 7.5 (IC50 between 200 nM and 32 nM)) |  | 
7 | C=CC(=O)N1CC(CCn2c(=O)ccc3cnc(Nc4ccc(N5C[C@@H](C)N(C)[C@H](C)C5)cc4)nc32)C1 [Example 264] | E (E represents a pKi value of 7 or below (Ki of 100 nM or above)) |  | B (B represents pKi value between 9 and 10 (Ki between 1 nM and 0.1 nM)) |  |  |  | A (A represents a value of 3 or above) | A (A represents a pIC50 value≥7.5 (IC50≤32 nM))
8 | C=CC(=O)N1CC(CCn2c(=O)ccc3cnc(Nc4ccn(C(C)C)n4)nc32)C1 [Example 257] | E (E represents a pKi value of 7 or below (Ki of 100 nM or above)) |  | B (B represents pKi value between 9 and 10 (Ki between 1 nM and 0.1 nM)) |  |  |  | A (A represents a value of 3 or above) | B (B represents a pC50 value between 6.7 (included) and 7.5 (IC50 between 200 nM and 32 nM))
9 | C=CC(=O)N1CCN(CCn2c(=O)ccc3cnc(Nc4ccn(C(C)C)n4)nc32)[C@@H](C)C1 [Example 258] | E (E represents a pKi value of 7 or below (Ki of 100 nM or above)) |  | B (B represents pKi value between 9 and 10 (Ki between 1 nM and 0.1 nM)) |  |  |  | A (A represents a value of 3 or above) | C (C represents a pIC50 value between 6 and 6.7 (IC50 between 1 μM and 200 nM))
10 | C=CC(=O)N1CCN(CCn2c(=O)ccc3cnc(Nc4cnn(C)c4)nc32)[C@@H](CC#N)C1 [Example 261] | E (E represents a pKi value of 7 or below (Ki of 100 nM or above)) |  | B (B represents pKi value between 9 and 10 (Ki between 1 nM and 0.1 nM)) |  |  |  | A (A represents a value of 3 or above) | B (B represents a pC50 value between 6.7 (included) and 7.5 (IC50 between 200 nM and 32 nM))
11 | C=CC(=O)N1CCN(CCn2c(=O)ccc3cnc(Nc4ccn(CC)n4)nc32)[C@@H](C)C1 [Example 255] | E (E represents a pKi value of 7 or below (Ki of 100 nM or above)) |  | B (B represents pKi value between 9 and 10 (Ki between 1 nM and 0.1 nM)) |  |  |  | A (A represents a value of 3 or above) | C (C represents a pIC50 value between 6 and 6.7 (IC50 between 1 μM and 200 nM))
12 | C=CC(=O)N1CCN(CCn2c(=O)ccc3cnc(Nc4ccc(N5CCOCC5)c(F)c4)nc32)CC1 [Example 41] | E (E represents a pKi value of 7 or below (Ki of 100 nM or above)) |  | B (B represents pKi value between 9 and 10 (Ki between 1 nM and 0.1 nM)) | A (A represents a value of 3 or above) |  | C (C represents a pIC50 value between 6 and 6.7 (IC50 between 1 μM and 200 nM)) |  | 
13 | C=CC(=O)N1CCN(CCn2c(=O)ccc3cnc(Nc4cnn(C5CCN(C)CC5)c4)nc32)CC1 [Example 43] | E (E represents a pKi value of 7 or below (Ki of 100 nM or above)) |  | B (B represents pKi value between 9 and 10 (Ki between 1 nM and 0.1 nM)) | A (A represents a value of 3 or above) |  | C (C represents a pIC50 value between 6 and 6.7 (IC50 between 1 μM and 200 nM)) |  | 
